# Key:
# Experiment in all cases: biochemical
# Design in all cases: Eurofins recombinant human kinase profiling, remaining kinase activity as % of control, 10 uM ATP
# Conditions in all cases: ATP 10 uM; read-out: %Ctrl@10 μM
# [1] = molecular target: T1, Ros(h) (Homo sapiens, UniProt P08922)
# T1 construct: gene ROS1
# Description: (§1) To rapidly determine the biological target of YL-939, we first tested the activity of YL-939 against a panel of 401 recombinant human protein kinases by using the kinase profiling assay provided by Eurofins, since kinases are often the key components in various signal pathways[35],[36]. […] We then carried out affinity-based proteome profiling assay (ABPP) coupled with bioimaging to identify the biological target of YL-939 (Fig. 4A). To this end, we designed and synthesized a photoaffinity probe, YL-939-1 (Fig. 4A and Supplementary Fig. 5), which is YL-939 attached by a photo-crosslinker (L3) that contains a photo-reactive group diazirine and a clickable alkyne handle.
# [2] = molecular target: T2, Pim-1(h) (Homo sapiens, UniProt P11309)
# T2 construct: gene PIM1
# T2 sequence (P11309 whole entry): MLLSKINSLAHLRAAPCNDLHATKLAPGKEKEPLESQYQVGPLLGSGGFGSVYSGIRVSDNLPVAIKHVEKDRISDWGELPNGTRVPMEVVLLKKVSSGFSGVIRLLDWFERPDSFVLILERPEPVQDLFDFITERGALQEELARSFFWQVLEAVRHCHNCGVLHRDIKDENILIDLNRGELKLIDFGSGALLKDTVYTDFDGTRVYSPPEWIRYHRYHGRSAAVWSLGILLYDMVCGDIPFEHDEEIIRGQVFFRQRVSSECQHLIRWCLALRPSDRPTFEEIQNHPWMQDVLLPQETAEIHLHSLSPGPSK
# Description: as §1
# [3] = molecular target: T3, PKG1β(h) (Homo sapiens, UniProt Q13976)
# T3 construct: gene PRKG1; isoform 1beta
# Description: as §1
# [4] = molecular target: PrKX(h) (Homo sapiens, UniProt P51817)
# Description: as §1
# [5] = molecular target: T4, PDGFRα(V561D)(h) (Homo sapiens, UniProt P16234, V561D)
# T4 construct: gene PDGFRA
# Description: as §1
# [6] = molecular target: T5, A-Raf(h) (Homo sapiens, UniProt P10398)
# T5 construct: gene ARAF
# T5 sequence (P10398 whole entry): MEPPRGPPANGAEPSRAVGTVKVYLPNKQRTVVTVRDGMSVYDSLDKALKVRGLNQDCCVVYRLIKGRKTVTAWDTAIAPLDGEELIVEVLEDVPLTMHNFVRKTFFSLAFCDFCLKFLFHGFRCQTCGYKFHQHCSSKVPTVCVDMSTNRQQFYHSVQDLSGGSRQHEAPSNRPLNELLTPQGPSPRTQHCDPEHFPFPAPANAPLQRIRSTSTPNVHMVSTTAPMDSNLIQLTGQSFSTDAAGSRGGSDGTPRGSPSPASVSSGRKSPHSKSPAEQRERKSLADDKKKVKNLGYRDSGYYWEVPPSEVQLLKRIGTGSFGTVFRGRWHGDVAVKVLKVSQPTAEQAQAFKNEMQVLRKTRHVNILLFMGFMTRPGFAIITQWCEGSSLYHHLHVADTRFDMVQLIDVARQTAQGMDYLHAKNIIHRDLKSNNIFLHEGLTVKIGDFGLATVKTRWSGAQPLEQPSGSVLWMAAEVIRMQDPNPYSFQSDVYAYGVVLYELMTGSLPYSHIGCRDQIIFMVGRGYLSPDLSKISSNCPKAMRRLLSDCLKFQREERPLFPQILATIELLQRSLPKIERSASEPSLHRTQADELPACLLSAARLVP
# Description: as §1
# [7] = molecular target: T6, PKBγ(h) (Homo sapiens, UniProt Q9Y243)
# T6 construct: gene AKT3
# Description: as §1
# [8] = molecular target: TTBK1(h) (Homo sapiens, UniProt Q5TCY1)
# Description: as §1
# [9] = molecular target: T7, PRK2(h) (Homo sapiens, UniProt Q16513)
# T7 construct: gene PKN2
# Description: as §1
# [10] = molecular target: T8, MEK1(h) (Homo sapiens, UniProt Q02750)
# T8 construct: gene MAP2K1
# T8 sequence (Q02750 whole entry): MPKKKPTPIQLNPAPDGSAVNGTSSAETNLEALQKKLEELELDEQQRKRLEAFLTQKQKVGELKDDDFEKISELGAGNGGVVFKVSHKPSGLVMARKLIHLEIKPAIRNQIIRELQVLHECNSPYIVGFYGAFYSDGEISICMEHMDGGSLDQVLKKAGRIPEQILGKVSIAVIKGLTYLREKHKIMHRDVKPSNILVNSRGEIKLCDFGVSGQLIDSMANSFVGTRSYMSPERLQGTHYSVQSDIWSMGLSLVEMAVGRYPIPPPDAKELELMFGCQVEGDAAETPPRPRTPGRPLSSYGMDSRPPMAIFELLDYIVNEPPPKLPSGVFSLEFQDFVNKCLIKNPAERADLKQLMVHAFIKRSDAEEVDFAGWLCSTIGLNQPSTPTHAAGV
# Description: as §1
# [11] = molecular target: T9, TAO1(h) (Homo sapiens, UniProt Q7L7X3)
# T9 construct: gene TAOK1
# Description: as §1
# [12] = molecular target: CLK2(h) (Homo sapiens, UniProt P49760)
# Description: as §1
# [13] = molecular target: T10, Rsk4(h) (Homo sapiens, UniProt Q9UK32)
# T10 construct: gene RPS6KA6
# Description: as §1
# [14] = molecular target: CSK(h) (Homo sapiens, UniProt P41240)
# Description: as §1
# [15] = molecular target: T11, PKBβ(h) (Homo sapiens, UniProt P31751)
# T11 construct: gene AKT2
# Description: as §1
# [16] = molecular target: GRK6(h) (Homo sapiens, UniProt P43250)
# Description: as §1
# [17] = molecular target: SGK2(h) (Homo sapiens, UniProt Q9HBY8)
# Description: as §1
# [18] = molecular target: HIPK3(h) (Homo sapiens, UniProt Q9H422)
# Description: as §1
# [19] = molecular target: T12, IKKε(h) (Homo sapiens, UniProt Q14164)
# T12 construct: gene IKBKE
# T12 sequence (Q14164 whole entry): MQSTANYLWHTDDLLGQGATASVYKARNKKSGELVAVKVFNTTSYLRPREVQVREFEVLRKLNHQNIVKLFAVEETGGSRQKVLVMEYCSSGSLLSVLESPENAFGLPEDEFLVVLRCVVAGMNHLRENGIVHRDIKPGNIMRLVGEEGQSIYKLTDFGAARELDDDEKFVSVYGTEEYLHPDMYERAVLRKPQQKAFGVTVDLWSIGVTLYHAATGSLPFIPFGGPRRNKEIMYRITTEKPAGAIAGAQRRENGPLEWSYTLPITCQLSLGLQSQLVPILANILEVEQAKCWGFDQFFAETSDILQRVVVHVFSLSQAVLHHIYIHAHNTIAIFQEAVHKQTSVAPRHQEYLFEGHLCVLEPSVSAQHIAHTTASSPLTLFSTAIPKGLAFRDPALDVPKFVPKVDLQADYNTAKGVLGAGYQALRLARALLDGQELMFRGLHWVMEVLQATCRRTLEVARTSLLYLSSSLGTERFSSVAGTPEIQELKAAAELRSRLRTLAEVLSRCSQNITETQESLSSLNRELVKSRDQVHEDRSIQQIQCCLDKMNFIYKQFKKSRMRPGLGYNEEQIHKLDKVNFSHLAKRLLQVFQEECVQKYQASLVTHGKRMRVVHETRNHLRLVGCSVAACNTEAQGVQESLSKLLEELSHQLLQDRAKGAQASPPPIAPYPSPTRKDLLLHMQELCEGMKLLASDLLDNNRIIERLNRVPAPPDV
# Description: as §1
# [20] = molecular target: T13, CaMKIV(h) (Homo sapiens, UniProt Q16566)
# T13 construct: gene CAMK4
# Description: as §1
# [21] = molecular target: T14, ASK1(h) (Homo sapiens, UniProt Q99683)
# T14 construct: gene MAP3K5
# Description: as §1
# [22] = molecular target: T15, CDK5/p35(h) (Homo sapiens, UniProt Q00535)
# T15 construct: p35
# T15 sequence (Q00535 whole entry): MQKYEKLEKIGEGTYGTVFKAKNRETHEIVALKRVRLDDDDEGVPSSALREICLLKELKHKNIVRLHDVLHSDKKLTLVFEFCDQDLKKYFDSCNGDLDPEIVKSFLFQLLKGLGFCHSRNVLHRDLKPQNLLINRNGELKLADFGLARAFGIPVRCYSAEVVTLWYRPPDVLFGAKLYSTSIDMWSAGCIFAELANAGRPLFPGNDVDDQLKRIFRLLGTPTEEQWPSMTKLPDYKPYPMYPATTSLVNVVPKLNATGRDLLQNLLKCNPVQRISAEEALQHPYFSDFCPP
# T15 sequence (Q15078 whole entry partner): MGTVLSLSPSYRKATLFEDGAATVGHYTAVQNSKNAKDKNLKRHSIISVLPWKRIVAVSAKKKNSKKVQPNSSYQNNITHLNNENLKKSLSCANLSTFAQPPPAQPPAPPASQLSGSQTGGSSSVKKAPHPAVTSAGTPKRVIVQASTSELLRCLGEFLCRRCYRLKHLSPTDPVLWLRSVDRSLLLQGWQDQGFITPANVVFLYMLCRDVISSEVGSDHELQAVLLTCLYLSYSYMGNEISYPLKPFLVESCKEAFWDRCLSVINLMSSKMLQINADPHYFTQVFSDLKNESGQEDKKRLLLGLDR
# Description: as §1
# T1 sequence (P08922 whole entry): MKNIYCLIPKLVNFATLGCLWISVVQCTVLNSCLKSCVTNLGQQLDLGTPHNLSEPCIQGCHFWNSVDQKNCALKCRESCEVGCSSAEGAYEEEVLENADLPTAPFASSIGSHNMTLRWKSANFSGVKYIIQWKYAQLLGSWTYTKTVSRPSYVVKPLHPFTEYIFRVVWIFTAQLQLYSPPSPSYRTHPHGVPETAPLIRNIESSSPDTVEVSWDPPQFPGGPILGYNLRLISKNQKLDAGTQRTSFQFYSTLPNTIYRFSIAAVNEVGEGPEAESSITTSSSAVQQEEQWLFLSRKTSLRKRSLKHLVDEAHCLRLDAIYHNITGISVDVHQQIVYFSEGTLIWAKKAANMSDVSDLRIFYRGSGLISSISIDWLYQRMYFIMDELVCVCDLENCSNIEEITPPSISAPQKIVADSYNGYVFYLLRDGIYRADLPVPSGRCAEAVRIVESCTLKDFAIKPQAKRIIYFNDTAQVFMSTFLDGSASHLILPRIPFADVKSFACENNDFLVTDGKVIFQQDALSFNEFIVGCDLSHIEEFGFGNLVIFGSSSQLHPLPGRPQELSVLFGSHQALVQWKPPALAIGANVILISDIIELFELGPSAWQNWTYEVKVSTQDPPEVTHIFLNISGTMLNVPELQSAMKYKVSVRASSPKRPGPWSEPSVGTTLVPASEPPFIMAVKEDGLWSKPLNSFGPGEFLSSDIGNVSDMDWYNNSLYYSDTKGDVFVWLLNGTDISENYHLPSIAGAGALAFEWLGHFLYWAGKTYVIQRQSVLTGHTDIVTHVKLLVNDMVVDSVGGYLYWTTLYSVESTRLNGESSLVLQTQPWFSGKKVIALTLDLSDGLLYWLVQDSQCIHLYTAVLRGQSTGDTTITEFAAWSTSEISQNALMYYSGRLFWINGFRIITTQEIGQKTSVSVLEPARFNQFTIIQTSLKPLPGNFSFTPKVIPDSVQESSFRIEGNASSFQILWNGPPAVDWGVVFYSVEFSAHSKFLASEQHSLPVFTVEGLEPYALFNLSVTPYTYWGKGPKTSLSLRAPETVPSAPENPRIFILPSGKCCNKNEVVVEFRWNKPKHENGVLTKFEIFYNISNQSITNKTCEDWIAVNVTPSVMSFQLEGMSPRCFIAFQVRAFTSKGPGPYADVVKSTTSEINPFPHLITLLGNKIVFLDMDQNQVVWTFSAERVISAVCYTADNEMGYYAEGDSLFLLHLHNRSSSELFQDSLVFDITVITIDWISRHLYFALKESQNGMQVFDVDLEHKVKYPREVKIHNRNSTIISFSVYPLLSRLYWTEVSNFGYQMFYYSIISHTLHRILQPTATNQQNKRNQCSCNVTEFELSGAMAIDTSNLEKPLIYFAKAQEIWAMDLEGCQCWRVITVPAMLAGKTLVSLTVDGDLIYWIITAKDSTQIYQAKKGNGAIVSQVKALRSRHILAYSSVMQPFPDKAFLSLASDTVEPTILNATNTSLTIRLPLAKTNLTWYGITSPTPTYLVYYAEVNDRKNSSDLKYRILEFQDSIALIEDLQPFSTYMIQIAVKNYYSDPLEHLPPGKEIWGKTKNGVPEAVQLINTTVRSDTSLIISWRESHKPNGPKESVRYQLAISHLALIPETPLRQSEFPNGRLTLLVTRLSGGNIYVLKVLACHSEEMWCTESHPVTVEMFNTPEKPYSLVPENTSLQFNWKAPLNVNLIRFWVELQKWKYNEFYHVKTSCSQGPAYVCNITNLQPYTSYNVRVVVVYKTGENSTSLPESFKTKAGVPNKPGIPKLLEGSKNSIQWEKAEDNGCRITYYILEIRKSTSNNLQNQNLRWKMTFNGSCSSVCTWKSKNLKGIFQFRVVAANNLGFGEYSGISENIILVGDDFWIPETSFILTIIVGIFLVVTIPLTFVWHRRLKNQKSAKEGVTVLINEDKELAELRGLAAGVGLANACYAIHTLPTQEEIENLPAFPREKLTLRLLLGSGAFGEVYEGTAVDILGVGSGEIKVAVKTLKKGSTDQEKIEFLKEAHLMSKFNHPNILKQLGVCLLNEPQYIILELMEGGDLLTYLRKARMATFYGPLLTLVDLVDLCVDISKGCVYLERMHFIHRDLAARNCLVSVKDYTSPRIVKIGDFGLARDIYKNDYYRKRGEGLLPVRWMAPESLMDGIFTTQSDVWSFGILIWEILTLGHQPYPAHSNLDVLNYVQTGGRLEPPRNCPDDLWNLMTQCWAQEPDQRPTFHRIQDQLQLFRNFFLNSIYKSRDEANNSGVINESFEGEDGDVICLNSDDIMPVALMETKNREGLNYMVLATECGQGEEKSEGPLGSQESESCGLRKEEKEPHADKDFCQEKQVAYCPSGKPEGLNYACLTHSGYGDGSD
smiles,measurement,setting,value
C1=C(c2nc(-c3cnn(C4CCNCC4)c3)cn3cc(-c4ccccc4)nc23)CCOC1 [YL-939],remaining activity at 10 µM,[1],97%
same,remaining activity at 10 µM,[2],68%
same,remaining activity at 10 µM,[3],83%
same,remaining activity at 10 µM,[4],80%
same,remaining activity at 10 µM,[5],101%
same,remaining activity at 10 µM,[6],83%
same,remaining activity at 10 µM,[7],97%
same,remaining activity at 10 µM,[8],103%
same,remaining activity at 10 µM,[9],89%
same,remaining activity at 10 µM,[10],109%
same,remaining activity at 10 µM,[11],81%
same,remaining activity at 10 µM,[12],71%
same,remaining activity at 10 µM,[13],73%
same,remaining activity at 10 µM,[14],105%
same,remaining activity at 10 µM,[15],87%
same,remaining activity at 10 µM,[16],87%
same,remaining activity at 10 µM,[17],96%
same,remaining activity at 10 µM,[18],86%
same,remaining activity at 10 µM,[19],113%
same,remaining activity at 10 µM,[20],77%
same,remaining activity at 10 µM,[21],110%
same,remaining activity at 10 µM,[22],100%

# Source: article PMC9719519, “Non-classical ferroptosis inhibition by a small molecule targeting PHB2” (Nature Communications, 2022)
